The values that follow are results of earlier work, collected in patent US10307140B2, “Device for detection of hepatocellar carcinoma (HCC) using an octanoate breath test” (EXALENZ BIOSCIENCE LTD., priority 2011, dated 2019).

Where two headings read alike, the source gives them in different places.

This series relates to liver mitochondria. Conditions: HCC patients.

For the compound `CC(C)CC(=O)C(=O)O` [KICA, ketoisocaproate], the “change of ketoisocaproate decarboxylation” value reads like this: (after RFA, P<0.05) −27%; (after TACE) “unaffected”.
